Laboratory results reported in ChEMBL document CHEMBL4007412, “Design, Synthesis, and Biological Evaluation of Mitochondria-Targeted Flavone-Naphthalimide-Polyamine Conjugates with Antimetastatic Activity” (J Med Chem, 2017).

How the values were obtained:
SMMC-7721 = test: Cytotoxicity against human SMMC7721 cells assessed as cell growth inhibition after 48 hrs by MTT assay; assay type: functional, cell-based; settings: SMMC-7721, 48 h
H22 [1] = test: Antitumor activity against […] xenografted in Kunming mouse assessed as suppression of tumor weight at 5 mg/kg, iv dosed every day starting from day 8 after tumor cell inoculation; assay type: functional
[2] = Cytotoxicity against human QSG7701 cells assessed as cell growth inhibition after 48 hrs by MTT assay; assay type: cell-based; settings: QSG7701, 48 h
HepG2 = test: Cytotoxicity against human HepG2 cells assessed as cell growth inhibition after 48 hrs by MTT assay; assay type: functional, cell-based; settings: HepG2, 48 h
H22 [3] = test: Antimetastatic activity against […] xenografted in pulmonary metastasis Kunming mouse model assessed as reduction in tumor metastatic nodules at 5 mg/kg, iv dosed every day starting from day 8 after tumor cell inoculation; assay type: functional; parameters: scale not given: the % may be the effect or the level left

Compound: CN(C)CCN1C(=O)c2cccc3cc(N)cc(c23)C1=O [AMONAFIDE]
- IC50 (SMMC-7721): 9.95 µM
- Activity (H22 [1]): 48.1%
- IC50 [2]: 7.84 µM
- IC50 (HepG2): 10.1 µM
- Activity (H22 [3]): 41.4%

Compound: CCCCN(CCCC)CCCN1C(=O)c2cccc3c(-c4cc(=O)c5ccccc5o4)ccc(c23)C1=O
- IC50 (SMMC-7721): 16.5 µM
- IC50 [2]: > 50 µM
- IC50 (HepG2): 18.9 µM

Compound: CCCCNCCCCN1C(=O)c2cccc3c(-c4cc(=O)c5ccccc5o4)ccc(c23)C1=O
- IC50 (SMMC-7721): 10.9 µM
- IC50 [2]: 16.1 µM
- IC50 (HepG2): 10.1 µM

Compound: O=C1c2cccc3c(-c4cc(=O)c5ccccc5o4)ccc(c23)C(=O)N1CCCN1CCOCC1
- IC50 (SMMC-7721): 31.6 µM
- IC50 [2]: 47.7 µM
- IC50 (HepG2): > 50 µM

Compound: NCCCNCCCNCCCN1C(=O)c2cccc3c(-c4cc(=O)c5ccccc5o4)ccc(c23)C1=O
- IC50 (SMMC-7721): 11.3 µM
- IC50 [2]: 17.4 µM
- IC50 (HepG2): 14.7 µM

Compound: NCCCCNCCCN1C(=O)c2cccc3c(-c4cc(=O)c5ccccc5o4)ccc(c23)C1=O
- IC50 (SMMC-7721): 11.1 µM
- IC50 [2]: 41.8 µM
- IC50 (HepG2): 9.84 µM

Compound: O=C1c2cccc3c(-c4cc(=O)c5ccccc5o4)ccc(c23)C(=O)N1CCCN1CCNCC1
- IC50 (SMMC-7721): 43.5 µM
- IC50 [2]: 34.7 µM
- IC50 (HepG2): > 50 µM

Compound: O=C1c2cccc3c(-c4cc(=O)c5ccccc5o4)ccc(c23)C(=O)N1CCCCN1CCNCC1
- IC50 (SMMC-7721): 16.6 µM
- IC50 [2]: 16.9 µM
- IC50 (HepG2): 15.5 µM
